Values after ≈ are worked out from the molar mass of the structure shown. Structures can show the parent of a compound that is named as a salt. Where two headings read alike, the source gives them in different places.
What was measured:
Ent. cloacae MA2646 = test: in vitro antibacterial activity, microtitration dilution (MIC), Ent. cloacae MA2646; assay type: cell-based; conditions: Enterobacter cloacae, read-out: minimum inhibiting concentration (MIC)
From the text: (§1) The in vitro antibacterial activity, is obtained by the microtitration dilution method as described in Heifetz, et al., Antimicr. Agents & Chemother., 6, 124 (1974), which is incorporated herein by reference.
(§2) By use of the above methods, the following minimum inhibiting concentration values (MICs in μg/mL), PD50 's in mg/kg, no effect phototoxicity dose in mg/kg and the cytotoxicity IC50 in μg/mL were obtained for representative enantiomers of the invention and compounds of the prior art as shown in the table.

Esch. coli Vogel [1] = test: in vitro antibacterial activity, microtitration dilution (MIC), Esch. coli Vogel; assay type: cell-based; conditions: Escherichia coli, read-out: minimum inhibiting concentration (MIC)
From the text: as §1, §2

Klebs. pneumoniae MGH-2 = test: in vitro antibacterial activity, microtitration dilution (MIC), Klebs. pneumoniae MGH-2; assay type: cell-based; conditions: Klebsiella pneumoniae, MGH2, read-out: minimum inhibiting concentration (MIC)
From the text: as §1, §2

Prot. rettgeri M 1771 = test: in vitro antibacterial activity, microtitration dilution (MIC), Prot. rettgeri M 1771; assay type: cell-based; conditions: Providencia rettgeri, M1771, read-out: minimum inhibiting concentration (MIC)
From the text: as §1, §2

Pseud. aeruginosa UI-18 = test: in vitro antibacterial activity, microtitration dilution (MIC), Pseud. aeruginosa UI-18; assay type: cell-based; conditions: Pseudomonas aeruginosa, UI18, read-out: minimum inhibiting concentration (MIC)
From the text: as §1, §2

Staph. aureus H 228 = test: in vitro antibacterial activity, microtitration dilution (MIC), Staph. aureus H 228; assay type: cell-based; conditions: Staphylococcus aureus, H228, read-out: minimum inhibiting concentration (MIC)
From the text: as §1, §2

Staph. aureus UC-76 = test: in vitro antibacterial activity, microtitration dilution (MIC), Staph. aureus UC-76; assay type: cell-based; conditions: Staphylococcus aureus, UC76, read-out: minimum inhibiting concentration (MIC)
From the text: as §1, §2

Strep. faecalis MGH-2 = test: in vitro antibacterial activity, microtitration dilution (MIC), Strep. faecalis MGH-2; assay type: cell-based; conditions: Enterococcus faecalis, MGH2, read-out: minimum inhibiting concentration (MIC)
From the text: as §1, §2

Strep. pheumoniae SV-1 = test: in vitro antibacterial activity, microtitration dilution (MIC), Strep. pneumoniae SV-1; assay type: cell-based; conditions: Streptococcus pneumoniae, SV1, read-out: minimum inhibiting concentration (MIC)
From the text: as §1, §2

Strep. pyogenes C-203 [2] = test: in vitro antibacterial activity, microtitration dilution (MIC), Strep. pyogenes C-203; assay type: cell-based; conditions: Streptococcus pyogenes, C203, read-out: minimum inhibiting concentration (MIC)
From the text: as §1, §2

Esch. coli Vogel [3] = test: median protective dose in mice given lethal systemic infections, Esch. coli Vogel; assay type: in vivo; conditions: Escherichia coli, single dose at time of challenge, read-out: median protective dose (PD50)
Procedure: (§3) The in vivo activity is obtained when the compounds are tested according to the procedure of Miller, et al (Proc. Soc. Exp. Biol. Med. 57, 261, 1944). The median protective dose (PD50) was determined in mice given lethal systemic infections. Single doses of compound were given at time of challenge.
as §2
(§4) The in vivo data as PD50 s are reported below the line of MICs for the same compound.

Strep. pyogenes C-203 [4] = test: median protective dose in mice given lethal systemic infections, Strep. pyogenes C-203; assay type: in vivo; conditions: Streptococcus pyogenes, single dose at time of challenge, read-out: median protective dose (PD50)
Procedure: as §3, §2, §4

Compound | MIC (Ent. cloacae MA2646) | MIC (Esch. coli Vogel [1]) | MIC (Klebs. pneumoniae MGH-2) | MIC (Prot. rettgeri M 1771) | MIC (Pseud. aeruginosa UI-18) | MIC (Staph. aureus H 228) | MIC (Staph. aureus UC-76) | MIC (Strep. faecalis MGH-2) | MIC (Strep. pheumoniae SV-1) | MIC (Strep. pyogenes C-203 [2]) | ED50 (Esch. coli Vogel [3]; PO) | ED50 (Esch. coli Vogel [3]; SC) | ED50 (Strep. pyogenes C-203 [4]; C203, PO) | ED50 (Strep. pyogenes C-203 [4]; C203, SC)
CCN[C@@H](C)[C@@H]1CCN(c2c(F)c(N)c3c(=O)c(C(=O)O)cn(C4CC4)c3c2F)C1 [Example 53, 3R,1S-5-amino-1-cyclopropyl-7-[3-(1-N-ethylaminoethyl)-1-pyrrolidinyl]-6,8-difluoro-1,4-dihydro-4-oxo-3-quinolinecarboxylic acid] | 0.025 µg/mL (≈ 0.0595 µM) | 0.025 µg/mL (≈ 0.0595 µM) | 0.05 µg/mL (≈ 0.119 µM) | 0.1 µg/mL (≈ 0.238 µM) | 0.8 µg/mL (≈ 1.9 µM) | ≤ 0.003 µg/mL | ≤ 0.003 µg/mL | 0.013 µg/mL (≈ 0.0309 µM) | ≤ 0.003 µg/mL | ≤ 0.003 µg/mL | 1.6 mg/kg | 0.8 mg/kg | 0.3 mg/kg | 0.3 mg/kg
C[C@H](N)[C@@H]1CCN(c2c(F)cc3c(=O)c(C(=O)O)cn(C4CC4)c3c2C(F)(F)F)C1 [Example 60, 3R,1S-7-[3-(1-aminoethyl)-1-pyrrolidinyl]-1-cyclopropyl-6-fluoro-1,4-dihydro-4-oxo-8-trifluoromethyl-3-quinolinecarboxylic acid] | 0.2 µg/mL (≈ 0.468 µM) | 0.2 µg/mL (≈ 0.468 µM) | 0.2 µg/mL (≈ 0.468 µM) | 0.4 µg/mL (≈ 0.936 µM) | 1.6 µg/mL (≈ 3.74 µM) | 0.013 µg/mL (≈ 0.0304 µM) | 0.006 µg/mL (≈ 0.014 µM) | 0.025 µg/mL (≈ 0.0585 µM) | 0.006 µg/mL (≈ 0.014 µM) | 0.006 µg/mL (≈ 0.014 µM) |  |  |  | 
C[C@@H](N)[C@@H]1CCN(c2nc3c(cc2F)c(=O)c(C(=O)O)cn3-c2ccc(F)cc2F)C1 [Example 48, 3R,1R-7-[3-(1-aminoethyl)-1-pyrrolidinyl]-1-(2,4-difluorophenyl)-6-fluoro-1,4-dihydro-1,8-naphthyridine-3-carboxylic acid] | 0.1 µg/mL (≈ 0.231 µM) | 0.1 µg/mL (≈ 0.231 µM) | 0.2 µg/mL (≈ 0.463 µM) | 0.4 µg/mL (≈ 0.925 µM) | 1.6 µg/mL (≈ 3.7 µM) | 0.1 µg/mL (≈ 0.231 µM) | 0.025 µg/mL (≈ 0.0578 µM) | 0.1 µg/mL (≈ 0.231 µM) | 0.05 µg/mL (≈ 0.116 µM) | 0.05 µg/mL (≈ 0.116 µM) |  |  | 9 mg/kg | 3 mg/kg
CN[C@@H](C)[C@@H]1CCN(c2cc3c(c(C)c2F)c(=O)c(C(=O)O)cn3C2CC2)C1 [Example 67, 3R,1S-1-cyclopropyl-6-fluoro-1,4-dihydro-5-methyl-7-[3-[1-(methylamino)ethyl]-1-pyrrolidinyl]-4-oxo-3-quinolinecarboxylic acid, monohydrochloride] | 0.4 µg/mL |  | 0.8 µg/mL | 1.6 µg/mL | 3.1 µg/mL | 0.05 µg/mL | 0.013 µg/mL | 0.1 µg/mL | 0.013 µg/mL | 0.025 µg/mL |  |  | 29 mg/kg | 3 mg/kg
CCN[C@@H](C)[C@H]1CCN(c2c(F)cc3c(=O)c(C(=O)O)cn(C4CC4)c3c2OC)C1 [Example 20, 3S,1S-1-cyclopropyl-6-fluoro-7-[3-(1-N-ethylaminoethyl)1-pyrrolidinyl]-8-methoxy-1,4-dihydro-4-oxo-3quinolinecarboxylic acid] | 0.8 µg/mL (≈ 1.92 µM) | 0.8 µg/mL (≈ 1.92 µM) | 1.6 µg/mL (≈ 3.83 µM) | 3.1 µg/mL (≈ 7.43 µM) | 6.3 µg/mL (≈ 15.1 µM) | 0.2 µg/mL (≈ 0.479 µM) | 0.05 µg/mL (≈ 0.12 µM) | 0.4 µg/mL (≈ 0.958 µM) | 0.2 µg/mL (≈ 0.479 µM) | 0.2 µg/mL (≈ 0.479 µM) |  |  |  | 
CCN[C@@H](C)[C@@H]1CCN(c2nc3c(cc2F)c(=O)c(C(=O)O)cn3C2CC2)C1 [Example 78, 3R,1S-1-cyclopropyl-7-[3-[1-(ethylamino)ethyl]-1-pyrrolidinyl]-6-fluoro-1,4-dihydro-4-oxo-1,8-naphthyridine-3-carboxylic acid] | 0.4 µg/mL (≈ 1.03 µM) | 0.1 µg/mL (≈ 0.257 µM) | 0.2 µg/mL (≈ 0.515 µM) | 1.6 µg/mL (≈ 4.12 µM) | 1.6 µg/mL (≈ 4.12 µM) | 0.05 µg/mL (≈ 0.129 µM) | 0.025 µg/mL (≈ 0.0644 µM) | 0.05 µg/mL (≈ 0.129 µM) | 0.025 µg/mL (≈ 0.0644 µM) | 0.05 µg/mL (≈ 0.129 µM) |  |  | 6 mg/kg | 4 mg/kg
C[C@H]([C@H]1CCN(c2nc3c(cc2F)c(=O)c(C(=O)O)cn3C2CC2)C1)N(C)C [Example 69, 3S,1R-1-cyclopropyl-7-[3-[1-(dimethylamino)ethyl]-1-pyrrolidinyl]-6-fluoro-1,4-dihydro-4-oxo-1,8-naphthyridine-3-carboxylic acid] | 0.1 µg/mL (≈ 0.257 µM) | 0.1 µg/mL (≈ 0.257 µM) | 0.2 µg/mL (≈ 0.515 µM) | 0.4 µg/mL (≈ 1.03 µM) | 1.6 µg/mL (≈ 4.12 µM) | 0.05 µg/mL (≈ 0.129 µM) | 0.006 µg/mL (≈ 0.0154 µM) | 0.025 µg/mL (≈ 0.0644 µM) | 0.013 µg/mL (≈ 0.0335 µM) | 0.025 µg/mL (≈ 0.0644 µM) |  |  |  | 
CN[C@H](C)[C@H]1CCN(c2c(F)c(N)c3c(=O)c(C(=O)O)cn(C4CC4)c3c2F)C1 [Example 34, 3S,1R-5-amino-1-cyclopropyl-6,8-difluoro-7-[3-(1-N-methylaminoethyl)-1-pyrrolidinyl]-1,4-dihydro-4-oxo-3-quinolinecarboxylic acid] | 0.4 µg/mL (≈ 0.984 µM) | 0.4 µg/mL (≈ 0.984 µM) | 0.8 µg/mL (≈ 1.97 µM) | 1.6 µg/mL (≈ 3.94 µM) | 3.1 µg/mL (≈ 7.63 µM) | 0.8 µg/mL (≈ 1.97 µM) | 0.4 µg/mL (≈ 0.984 µM) | 1.6 µg/mL (≈ 3.94 µM) | 0.8 µg/mL (≈ 1.97 µM) | 1.6 µg/mL (≈ 3.94 µM) |  |  |  | 
COc1c(N2CC[C@@H]([C@H](C)N)C2)c(F)c(N)c2c(=O)c(C(=O)O)cn(C3CC3)c12 [Example 59, 3R,1S-5-amino-7-[3-(1-aminoethyl)-1-pyrrolidinyl]-1-cyclopropyl-6-fluoro-1,4-dihydro-8-methoxy-4-oxo-3-quinolinecarboxylic acid] | 0.05 µg/mL (≈ 0.124 µM) | 0.05 µg/mL (≈ 0.124 µM) | 0.1 µg/mL (≈ 0.247 µM) | 0.1 µg/mL (≈ 0.247 µM) | 0.8 µg/mL (≈ 1.98 µM) | 0.006 µg/mL (≈ 0.0148 µM) | 0.003 µg/mL (≈ 0.00742 µM) | 0.006 µg/mL (≈ 0.0148 µM) | 0.003 µg/mL (≈ 0.00742 µM) | 0.003 µg/mL (≈ 0.00742 µM) |  |  |  | 
CCOc1c(N2CC[C@@H]([C@H](C)N)C2)c(F)cc2c(=O)c(C(=O)O)cn(C3CC3)c12 [Example 49, 3R,1S-7-[3-(1-aminoethyl)-1-pyrrolidinyl]-1-cyclopropyl-8-ethoxy-6-fluoro-1,4-dihydro-4-oxo-3-quinolinecarboxylic acid] | 0.2 µg/mL (≈ 0.496 µM) | 0.1 µg/mL (≈ 0.248 µM) | 0.2 µg/mL (≈ 0.496 µM) | 0.2 µg/mL (≈ 0.496 µM) | 1.6 µg/mL (≈ 3.97 µM) | 0.013 µg/mL (≈ 0.0322 µM) | ≤ 0.003 µg/mL | 0.025 µg/mL (≈ 0.062 µM) | 0.006 µg/mL (≈ 0.0149 µM) | 0.006 µg/mL (≈ 0.0149 µM) |  |  |  | 
C[C@@H]([C@H]1CCN(c2nc3c(cc2F)c(=O)c(C(=O)O)cn3C2CC2)C1)N(C)C [Example 70, 3S,1S-1-cyclopropyl-7-[3-[1-(dimethylamino)ethyl]-1-pyrrolidinyl]-6-fluoro-1,4-dihydro-4-oxo-1,8-naphthyridine-3-carboxylic acid] | 0.4 µg/mL (≈ 1.03 µM) | 0.4 µg/mL (≈ 1.03 µM) | 0.8 µg/mL (≈ 2.06 µM) | 3.1 µg/mL (≈ 7.98 µM) | 12.5 µg/mL (≈ 32.2 µM) | 0.4 µg/mL (≈ 1.03 µM) | 0.2 µg/mL (≈ 0.515 µM) | 0.8 µg/mL (≈ 2.06 µM) | 0.2 µg/mL (≈ 0.515 µM) | 0.4 µg/mL (≈ 1.03 µM) |  |  |  | 
CCN[C@@H](C)[C@@H]1CCN(c2cc3c(c(N)c2F)c(=O)c(C(=O)O)cn3C2CC2)C1 [Example 55, 3R,1S-5-amino-7-[3-(1-N-ethylaminoethyl)-1-pyrrolidinyl]-1-cyclopropyl-6-fluoro-1,4-dihydro-4-oxo-3-quinolinecarboxylic acid] | 0.1 µg/mL (≈ 0.248 µM) | 0.1 µg/mL (≈ 0.248 µM) | 0.2 µg/mL (≈ 0.497 µM) | 0.8 µg/mL (≈ 1.99 µM) | 1.6 µg/mL (≈ 3.98 µM) | 0.05 µg/mL (≈ 0.124 µM) | 0.025 µg/mL (≈ 0.0621 µM) | 0.05 µg/mL (≈ 0.124 µM) | 0.013 µg/mL (≈ 0.0323 µM) | 0.013 µg/mL (≈ 0.0323 µM) |  |  |  | 
